# Measurements: US4879288A, “Novel dibenzothiazepine antipsychotic” (ICI Americas Inc., priority 1986, dated 1989)
# Structures can show the parent of a compound that is named as a salt. Where two headings read alike, the source gives them in different places.
# Columns and labels:
# sensitized cebus monkeys [1] = conditions: for Number of Monkeys with Dyskinetic Reactions/Number Tested: observed eight hours; for duration of reactions / intensity of reactions: typical reactions
# From the text: The compound of Formula II, clozapine, thioridazine or haloperidol were each orally administered to sensitized cebus monkeys. They were then observed in their home cages continuously for eight hours and occurrences of dyskinetic reactions noted.
# schizophrenic patients = conditions: background statement; cited from earlier work
# sensitized cebus monkeys [2] = conditions: background statement; cited from earlier work
# [3] = tested on: amphetamine-induced hyperactivity; conditions: for Activity Score (0-2 Hr) (Mean Number of Crossings of Center Line of Alley): vehicle 148
# Experimental: A number of tests are recognized as showing antidopaminergic activity of a compound and/or as being predictive of antipsychotic activity in mammals. For these tests a compound of formula II in the form of a salt (for example, as described in Example 2) was used. All dosages in the tables are expressed as free base. This test has been described by Swerdlow and Koob [Pharmacol. Biochem. and Behav., 23: 303 (1985)]. Rats that are administered amphetamine at a moderate dose become hyperactivity. The hyperactivity can last for several hours, and can be measured in various ways, for example, by counting the number of times the rat walks from one end of a long alley to the other end. […] The hyperactivity of […]-treated rats can be antagonized (prevented) by pretreatment with dopamine-blocking agents. […] The compound of the present invention as the HCl salt or the vehicle (vehicle is defined in Example 5) were administered orally to 20 rats and […] injected intraperitoneally. Activity (walking back and forth in a long alley) was recorded for two hours.
# squirrel monkeys = conditions: for Number of Monkeys Scoring 75% (Or Less) Avoidance Responses/Number Tested: vehicle 0/20
# From the text: (§1) A number of tests are recognized as showing antidopaminergic activity of a compound and/or as being predictive of antipsychotic activity in mammals. For these tests a compound of formula II in the form of a salt (for example, as described in Example 2) was used. All dosages in the tables are expressed as free base.
# The conditioned avoidance test has been described by Herz, A., Int. Rev. Neurobiol., (1960) 2: 229-277. In this test, a warning stimulus is presented for five seconds. The monkeys are trained to press a lever to turn off the warning stimulus thereby avoiding the delivery of electric shocks at 1/sec for 10 seconds that would begin at the end of the warning stimulus. If there is no response during the warning stimulus (no avoidance response) and the shocks begin, a response during the shocks stops the shocks. Trials of this type are repeated every minute for six hours. […] A compound of the present invention Formula II (HCl salt) was administered orally and the conditioned avoidance test was administered. The vehicle used was that defined in Example 5.
# [4] = tested on: apomorphine-induced climbing; conditions: for Mean Climb Score: 13-14 min after apomorphine HCl 1.25 mg/kg s.c., vehicle 24
# Experimental: as §1
# This test has been described by Ther and Schramm [Arch int. Pharmacodyn., 138: 302 (1962); Peuch, Simon and Boissier, Eur. J. Pharm., 50: 291 (1978)]. Mice that are administered an appropriate dose of apomorphine (a dopamine agonist) will climb the walls of a cage or other suitable structure and remain at or near the top for 20-30 minutes. Untreated mice on the other hand will occasionally climb up and then climb down. […] The antagonism of apomorphine-induced climbing in mice is therefore an indication of the potential dopamine blocking activity of the agent. Since dopamine blocking agents are typically antipsychotic agents, the test is considered to be evidence for potential antipsychotic activity of the agent. The vehicle itself [hydroxypropylmethylcellulose (HPMC) 0.5% w/v, polyoxyethylene (20) sorbitan monooleate (Tween 80) .1% w/v, and distilled water] or the vehicle with the test compound of the present invention was administered orally to twenty mice in graded doses. After 30 minutes, apomorphine HCl was administered subcutaneously at 1.25 mg/kg and the mice were placed in cages containing 28 horizontal rungs, upon which the mice could climb. Thirteen minutes later they were scored for climbing. The climbing score was the mean of the highest and lowest rungs on which the mouse climbed during a one-minute time period from 13 ° 14 minutes after apomorphine.
# [5] = tested on: rat striatal dihydroxyphenylacetic acid (DOPAC); conditions: rat striatum, HPLC
# From the text: as §1
# (§2) Among the various pharmacological effects of antipsychotics, their action as dopamine antagonists in the brain has been extensively investigated. Enhancement of dopamine metabolism (dihydroxyphenylacetic acid and homovanillic acid (DOPAC and HVA)) by antipsychotic agents has been attributed to a blockade of dopamine receptors [A. Carlson and M. Lindquist, Acta. Pharmac. Tox., (1963) 20: 140]. The effects of a compound of the invention on DOPAC and HVA levels in the rat striatum were measured by HPLC using electrochemcial detection according to the method of Saller and Salama [J. Chromatography, (1984) 309: 287].
# [6] = tested on: rat striatal homovanillic acid (HVA); conditions: rat striatum, HPLC
# From the text: as §1, §2
# [7] = at therapeutic doses
# [8] = 20 mg/kg p.o., one of two reacting monkeys
compound,measurement,setting,value
"CN1CCN(C2=Nc3cc(Cl)ccc3Nc3ccccc32)CC1 [Clozapine, reference compound]",Number of Monkeys with Dyskinetic Reactions/Number Tested,sensitized cebus monkeys [1]; 10 mg/kg p.o.,0/1
same,Number of Monkeys with Dyskinetic Reactions/Number Tested,sensitized cebus monkeys [1]; 20 mg/kg p.o.,0/13
same,Number of Monkeys with Dyskinetic Reactions/Number Tested,sensitized cebus monkeys [1]; 40 mg/kg p.o.,0/11
same,Number of Monkeys with Dyskinetic Reactions/Number Tested,sensitized cebus monkeys [1]; 60 mg/kg p.o.,0/5
same,tardive dyskinesia reported,schizophrenic patients,no tardive dyskinesia reported
same,dyskinetic reaction in sensitized cebus monkeys,sensitized cebus monkeys [2],does not produce a dyskinetic reaction
"OCCOCCN1CCN(C2=Nc3ccccc3Sc3ccccc32)CC1 [Formula II (HCl salt), 11-[4-[2-(2-Hydroxyethoxy)ethyl]-1-piperaziny]dibenzo [b,f][1,4]thiazepine, hydrochloride salt]",Activity Score (0-2 Hr) (Mean Number of Crossings of Center Line of Alley),"[3]; 10 mg/kg p.o., p < .05",118.3 Crossings
same,Activity Score (0-2 Hr) (Mean Number of Crossings of Center Line of Alley),"[3]; 20 mg/kg p.o., p < .0005",92.4 Crossings
same,Activity Score (0-2 Hr) (Mean Number of Crossings of Center Line of Alley),"[3]; 40 mg/kg p.o., p < .0005",64.3 Crossings
same,Activity Score (0-2 Hr) (Mean Number of Crossings of Center Line of Alley),"[3]; 80 mg/kg p.o., p < .0005",39.8 Crossings
same,antagonism of amphetamine-induced hyperactivity,[3]; result in words,antagonized the hyperactivity
same,Number of Monkeys Scoring 75% (Or Less) Avoidance Responses/Number Tested,squirrel monkeys; 5 mg/kg p.o.,0/4
same,Number of Monkeys Scoring 75% (Or Less) Avoidance Responses/Number Tested,squirrel monkeys; 10 mg/kg p.o.,15/20
same,Number of Monkeys Scoring 75% (Or Less) Avoidance Responses/Number Tested,squirrel monkeys; 20 mg/kg p.o.,19/20
same,reduction of avoidance responses,"squirrel monkeys; result in words, oral",marked reduction of avoidance responses
same,Number of Monkeys with Dyskinetic Reactions/Number Tested,sensitized cebus monkeys [1]; 2.5 mg/kg p.o.,0/13
same,Number of Monkeys with Dyskinetic Reactions/Number Tested,sensitized cebus monkeys [1]; 5 mg/kg p.o.,1/13
same,duration of reaction,sensitized cebus monkeys [1]; 10 mg/kg,about twenty
same,intensity of reaction,sensitized cebus monkeys [1]; 10 mg/kg,weak
same,Number of Monkeys with Dyskinetic Reactions/Number Tested,sensitized cebus monkeys [1]; 10 mg/kg p.o.,1/13
same,Number of Monkeys with Dyskinetic Reactions/Number Tested,"sensitized cebus monkeys [1]; 20 mg/kg p.o., hydrochloride salt",2/13
same,Number of Monkeys with Dyskinetic Reactions/Number Tested,"sensitized cebus monkeys [1]; 20 mg/kg p.o., listed as compound of the present invention, hydrochloride salt",two of thirteen
same,duration of reaction,sensitized cebus monkeys [1]; [8],about five
same,intensity of reaction,sensitized cebus monkeys [1]; [8],extremely weak
same,Number of Monkeys with Dyskinetic Reactions/Number Tested,sensitized cebus monkeys [1]; 40 mg/kg p.o.,0/4
same,dyskinetic and dystonic reactions,"sensitized cebus monkeys [1]; compared to haloperidol or thioridazine, oral",markedly fewer dyskinetic and dystonic reactions
same,intensity of the reactions,"sensitized cebus monkeys [1]; compared to thioridazine or haloperidol, oral",less than that of thioridazine or haloperidol
same,Mean Climb Score,[4]; 10 mg/kg i.p. (head; text: orally),24
same,Mean Climb Score,[4]; 20 mg/kg i.p. (head; text: orally),15
same,Mean Climb Score,[4]; 40 mg/kg i.p. (head; text: orally),2
same,Mean Climb Score,[4]; 80 mg/kg i.p. (head; text: orally),0
same,antagonism of apomorphine-induced climbing,[4]; result in words,antagonized the climbing
same,% Control DOPAC,[5]; 10 mg/kg i.p.,145 % Control
same,% Control DOPAC,[5]; 20 mg/kg i.p.,220 % Control
same,% Control DOPAC,[5]; 40 mg/kg i.p.,300 % Control
same,% Control HVA,[6]; 10 mg/kg i.p.,140 % Control
same,% Control HVA,[6]; 20 mg/kg i.p.,210 % Control
same,% Control HVA,[6]; 40 mg/kg i.p.,260 % Control
"OCCOCCN1CCN(C2=Nc3ccccc3Sc3ccccc32)CC1 [Formula II, 11-[4-[2-(2-Hydroxyethoxy)ethyl]-1-piperazinyl]-dibenzo[b,f][1,4]thiazepine]",overt toxicity,[7],No overt toxicity
"O=C(CCCN1CCC(O)(c2ccc(Cl)cc2)CC1)c1ccc(F)cc1 [Haloperidol, reference compound]",Number of Monkeys with Dyskinetic Reactions/Number Tested,sensitized cebus monkeys [1]; 1.0 mg/kg p.o.,13/13
same,duration of reactions,sensitized cebus monkeys [1]; oral,several
same,intensity of reactions,sensitized cebus monkeys [1]; oral,moderate or high intensity
"CSc1ccc2c(c1)N(CCC1CCCCN1C)c1ccccc1S2 (stereo not drawn) [Thioridazine, reference compound]",Number of Monkeys with Dyskinetic Reactions/Number Tested,sensitized cebus monkeys [1]; 10 mg/kg p.o.,11/13
same,duration of reactions,sensitized cebus monkeys [1]; oral,several
same,intensity of reactions,sensitized cebus monkeys [1]; oral,moderate or high intensity
